In patent publication US9150581B2, “Nicotinic receptor compounds” (priority 2011, dated 2015):
Several values for one entry are separate records, joined by “and”; a condition that tells them apart may be missing. Equal values may be shown once. Where a name gives a salt, the structure may show the parent alone. Read-outs that look alike come from different tables or passages of the source.

Assays:
Male Sprague-Dawley rats [1] = details: for Blockade of nicotine's hypertensive effects: given prior to 1.78 mg/kg nicotine, RTI-154 10 mg/kg, DHβE 5.6 mg/kg
Experimental: Male Sprague-Dawley rats (approximately 300 g) were obtained from Harlan, Inc. (Indianapolis, Ind.) and group-housed upon arrival. Food and water were freely available for all rats at all times. Housing and experimental rooms were maintained on a 12 h light/dark cycle with lights on at 7:00 AM with an average temperature of 21° C.
Surgical Procedures. To measure changes in heart rate and mean arterial pressure, rats were implanted with telemetric transmitters (TA11PAC40 or TL11M2-C50-PXT, Data Sciences International, Transoma Medical Inc., St. Paul, Minn., USA) under ketamine (90 mg/kg, i.p.) and xylazine (10 mg/kg, i.p.) anesthesia. An incision is made in the skin approximately 1 in to the left or right of the spine and over the left or right thigh to expose the femoral artery. The transmitter is placed into the incision on the dorsal side and into a subcutaneous pocket (made by separating the connective tissue between the skin and muscle) on the side of the abdomen. This positioning prevents the rats from manipulating the incision site and gaining access to the transmitter. The catheter extending from the base of the transmitter is threaded subcutaneously, placed 3 cm into the femoral artery, and secured with suture. Incisions were closed with 5.0 Ethicon nylon monofilament suture. Following surgery, rats were singly-housed and monitored for at least 7 days for signs of recovery (normal eating, drinking, and defecating patterns) prior to experimentation. All rats continued to have free access to food and water at all times.
Telemetry System. The system consists of battery-operated transmitters surgically implanted (described above), Physiotel® receivers, the DSI Data Exchange Matrix, and the Dataquest A.R.T. system, which collects and stores digital data from the receiver onto a computer (Data Sciences International, Transoma Medical Inc., St. Paul, Minn., USA). Blood pressure and heart rate data were analyzed by the Dataquest A.R.T. Gold Analysis 3.01 software.
At the start of an experiment, rats' home cages were placed on top of the receivers, and baseline data was collected for at least 1 h to allow heart rate and blood pressure to return to resting levels. All rats were given a saline injection to ensure that they are habituated to the injection and handling procedure on the test day. After heart rate and blood pressure returned to resting levels again, rats were injected with a treatment, consisting either of a single drug dose or a pretreatment drug administered 15 min prior to a test drug. Data was collected for at least 2 h following the last injection. All injections were administered subcutaneously (s.c.) in a volume of 1 ml/kg.
Each rat was used to evaluate multiple experimental conditions, such that each rat may receive as many as 4-6 different treatments, one per week with at least 6 days between drug exposures. […] Once the rats weigh approximately 450 g (body weight at time of transmitter implant: 300-350 g), the rat is no longer used for experiments, and the transmitter is removed.
Data were collected throughout baseline, before, and after drug treatments. The analysis program calculated an average heart rate and mean arterial pressure (MAP) every 10 sec. These 10 secepochs are then averaged over 1 min per rat, and data from at least 6 rats were averaged for each treatment group.

Male Sprague-Dawley rats [2] = format: in vivo, rat; details: for Shift of discriminative stimulus dose-effect curve of small dose of nicotine: small training dose of nicotine; for Nicotine-like discriminative stimulus effects: compound alone (FIG. 3)
Experimental: A drug discrimination assay was performed to measure the relevant effects of nicotine as it influences tobacco use and abuse. In a drug discrimination assay, food restricted rates are trained to make one response (select one of two nose-poke apertures in the test chamber) following administration of a particular drug, and a different response (select the other aperture) following administration of saline. The appropriate response is followed by delivery of food, and there is no cue as to which aperture will result in food delivery other than the presence or absence of the drug. Once trained, the animals respond on the “drug-associated” aperture following drug administration and on the “saline-associated” aperture following saline administration. In addition, administration of drug doses that are smaller than the training dose produce intermediate responses on the drug-associated aperture such that monotonically increasing dose-response curves can be generated in drug discrimination assays.
Male Sprague-Dawley rats were obtained from Harlan, Inc (Indianapolis, Ind.) and singly housed in polycarbonate cages with water continuously available. All rats weighed approximately 280-290 gms at the start of the experiment. A food-restricted diet of Purina rodent food allowed the animals to grow but maintain motivation to respond to earn food pellets. A 12 hr light-dark cycle turned the lights on at 7:00 am. Standard operant conditioning chambers (ENV-008, Med-Associates, St Albans, Vt.) were used for establishing and evaluating the nicotine discrimination. Each chamber contains two nose-poke devices with apertures containing yellow LED lights on either side of a dipper capable of delivering 50 μl of fluid into a third opening.
Initially, each rat was trained to insert its nose into one of the apertures and received vanilla-flavored Ensure as a consequence. During discrimination training, rats designated in the small dose group were injected with either saline or 0.32 mg/kg of nicotine. Ten consecutive responses on the appropriate lever (one side following saline administration; the other side following nicotine administration) was followed by presentation of the Ensure for 10 s, followed by a 10 s timeout. Selection of the incorrect lever, and completion of the 10 consecutive responses in this lever results in a 10 s timeout. Criteria for learning the discrimination are 1) responding on the first FR of the session is completed on the injection appropriate aperture; 2) >85% of the total session responses are made on the injection-appropriate aperture.
Each session was divided into several components of 25 min duration. Following an injection, the first five minutes of each component were black out, and the stimulus lights were illuminated for the remaining 20 min, during which injection-appropriate responses were reinforced.
One to four components comprised daily sessions Animals were injected with saline or nicotine prior to the start of the session, or following one or more of the […] components. Possible injection conditions were (S=saline, N=nicotine) S—S—S—S; N; S—N; S—S—N; S—S—S—N. Nicotine administration is always given in the final component if it is given at all.
If a potential antagonist was given, it was administered prior to the session at a time determined by earlier studies to be sufficient for peak effects to be established. The session components then comprised increasing doses of nicotine, each given before consecutive blackout periods. No more than two antagonist sessions were given each week, and once each month a nicotine dose-response curve was determined to assure no changes in sensitivity to nicotine. Full generalization to the nicotine discriminative cue is defined by >85% responding on the drug-associated aperture and completing at least one FR.
A second, large-nicotine trained group of rats were treated in an identical manner except that their training dose of nicotine is 1.78 mg/kg. […]

α4β2 nAChR = α4β2 nAChR (Rattus norvegicus (Rat), UniProt P09483+P12390); experiment: Inhibition of [3H]epibatidine binding at the α4β2 nAChR in male rat cerebral cortex; details: αβ [3H]Epibatidine (Ki, nM)
α4β2 nAChR, sequence (P09483 31-630 limits assumed): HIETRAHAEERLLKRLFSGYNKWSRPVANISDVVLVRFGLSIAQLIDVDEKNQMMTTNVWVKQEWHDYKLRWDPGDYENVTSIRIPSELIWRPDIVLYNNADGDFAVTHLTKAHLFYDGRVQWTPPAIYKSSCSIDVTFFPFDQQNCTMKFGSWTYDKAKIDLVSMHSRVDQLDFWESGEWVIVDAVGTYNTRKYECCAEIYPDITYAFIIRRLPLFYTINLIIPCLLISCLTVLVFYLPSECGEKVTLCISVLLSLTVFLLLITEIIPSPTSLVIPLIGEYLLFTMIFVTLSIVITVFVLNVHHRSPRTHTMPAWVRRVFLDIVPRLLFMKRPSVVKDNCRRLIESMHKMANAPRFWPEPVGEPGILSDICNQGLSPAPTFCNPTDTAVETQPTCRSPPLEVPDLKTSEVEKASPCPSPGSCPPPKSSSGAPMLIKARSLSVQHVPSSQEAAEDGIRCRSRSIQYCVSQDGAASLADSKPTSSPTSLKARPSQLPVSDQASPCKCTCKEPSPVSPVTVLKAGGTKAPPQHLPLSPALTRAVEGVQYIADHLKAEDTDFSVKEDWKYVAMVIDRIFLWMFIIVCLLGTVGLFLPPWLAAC
α4β2 nAChR, sequence (P12390 25-500 limits assumed): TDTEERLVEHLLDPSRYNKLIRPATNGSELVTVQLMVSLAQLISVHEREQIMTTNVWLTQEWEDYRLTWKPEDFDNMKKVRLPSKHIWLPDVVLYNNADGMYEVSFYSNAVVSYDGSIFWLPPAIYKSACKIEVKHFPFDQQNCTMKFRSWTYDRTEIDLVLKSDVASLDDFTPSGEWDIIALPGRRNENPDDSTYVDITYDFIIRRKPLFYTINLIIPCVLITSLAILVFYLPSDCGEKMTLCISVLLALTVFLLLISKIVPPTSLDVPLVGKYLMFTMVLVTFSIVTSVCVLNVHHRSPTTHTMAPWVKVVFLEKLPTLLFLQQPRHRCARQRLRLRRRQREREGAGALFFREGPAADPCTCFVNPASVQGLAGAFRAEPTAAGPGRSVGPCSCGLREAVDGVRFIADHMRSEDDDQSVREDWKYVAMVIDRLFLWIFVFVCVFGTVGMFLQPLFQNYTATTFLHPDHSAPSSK

mice [3] = experiment: Tail-flick test (antinociception); format: in vivo, mouse; details: @ 10 mg/kg, sc
Experimental: (§1) In the tail-flick method of D'Amour and Smith, (D'Amour, F. E.; Smith, D. L. J. Pharmacol. Exp. Ther. 1941, 72, 74-79), the tail is exposed to a heat lamp and the amount of time taken for the animal to move (flick) its tail away from the heat is recorded. […] Mice were placed into a 10-cm wide glass cylinder on a hot plate (Thermojust Apparatus) maintained at 55.0° C. Two control latencies at least 10 min apart were determined for each mouse. […] The reaction time was scored when the animal jumped or licked its paws. The mice were tested 5 min after subcutaneous (sc) injections of nicotinic ligands for the dose-response determination. Antinociceptive response was calculated as percentage of maximum possible effect (% MPE, where % MPE=[(test−control)/(maximum latency−control)×100]).

mice [4] = experiment: Hot-plate test (antinociception); format: in vivo, mouse; details: @ 10 mg/kg, sc
Experimental: as §1

mice [5] = experiment: Hypothermia (rectal temperature); format: in vivo, mouse; details: sc; for Hypothermia, % effect at dose: @ 10 mg/kg
Experimental: (§2) Interruptions of the photocell beams (two banks of eight cells each) were then recorded for the next 10 min. Data were expressed as number of photocell interruptions. Rectal temperature was measured by a thermistor probe (inserted 24 mm) and digital thermometer (Yellow Springs Instrument Co., Yellow Springs, Ohio). […] The difference in rectal temperature before and after treatment was calculated for each mouse. The ambient temperature of the laboratory varied from 21 to 24° C. from day to day.

mice [6] = experiment: Spontaneous activity (photocell activity cages); format: in vivo, mouse; details: sc
Experimental: as §2

mice [7] = experiment: Antagonism of nicotine antinociception, tail-flick; format: in vivo, mouse; details: mice pretreated sc 10 min before nicotine 2.5 mg/kg sc
Experimental: as §1
(§3) Nicotine was administered at a dose of 2.5 mg/kg, sc (an ED84 dose), and mice were tested 5 min later. ED50 and AD50 values with 95% confidence limits were determined.

mice [8] = experiment: Antagonism of nicotine antinociception, hot-plate; format: in vivo, mouse; details: for Antagonism Hot-Plate, % at dose: before nicotine 2.5 mg/kg sc; for AD50 Hot-Plate: mice pretreated sc 10 min before nicotine 2.5 mg/kg sc
Experimental: as §1, §3

Male ICR adult mice = format: in vivo, mouse
α7 nAChR = α7 nAChR (Rattus norvegicus (Rat), UniProt Q05941); format: binding; details: read-out: α7 [125I]iodoMLA (Ki)
α7 nAChR, sequence (Q05941 23-502 limits assumed): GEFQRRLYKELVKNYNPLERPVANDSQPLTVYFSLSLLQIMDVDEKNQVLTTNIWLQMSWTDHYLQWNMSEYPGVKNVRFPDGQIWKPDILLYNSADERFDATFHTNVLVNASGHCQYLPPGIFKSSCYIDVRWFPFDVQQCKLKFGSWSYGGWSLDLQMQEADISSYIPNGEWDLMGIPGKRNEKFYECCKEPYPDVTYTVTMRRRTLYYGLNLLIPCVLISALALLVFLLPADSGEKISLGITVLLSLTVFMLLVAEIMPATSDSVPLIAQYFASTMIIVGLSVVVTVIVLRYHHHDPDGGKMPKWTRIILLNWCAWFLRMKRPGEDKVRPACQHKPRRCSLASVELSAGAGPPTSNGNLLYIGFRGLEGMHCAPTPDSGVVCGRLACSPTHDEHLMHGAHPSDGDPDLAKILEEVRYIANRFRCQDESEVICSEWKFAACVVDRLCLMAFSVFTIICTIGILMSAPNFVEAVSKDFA

[9] = listed as (±)-154, hydrochloride

Compound: CO[C@H]1CC=C2CCN3CCC4=C(CC(=O)OC4)[C@]23C1 [DHβE, dihydro-beta-erythroidine]
- Blockade of nicotine's hypertensive effects (Male Sprague-Dawley rats [1]; rats): did not block
- Cardiovascular effects (heart rate and mean arterial pressure) (Male Sprague-Dawley rats [1]; rats, s.c., compound alone): no cardiovascular effects
- Effect on blood pressure (Male Sprague-Dawley rats [1]; rats, s.c., compound alone): no changes in blood pressure
- Effect on rate-decreasing effects of nicotine (Male Sprague-Dawley rats [2]): did not antagonize
- Shift of discriminative stimulus dose-effect curve of small dose of nicotine (Male Sprague-Dawley rats [2]): parallel rightward shifts
- Shift of large dose-nicotine dose-response curve (Male Sprague-Dawley rats [2]; training dose of nicotine 1.78 mg/kg): much less robust rightward shifts

Compound: N#Cc1ccc(-c2cc(C3CC4CCC3N4)cnc2F)cc1 (centres unmarked) [RTI-7527-155, 2-(5-(4-Cyano-phenyl)-6-fluoro-pyridin-3-yl)-7-aza-bicyclo[2.2.1]heptane hydrochloride]
- Ki (α4β2 nAChR): 0.19 ± 0.012 nM
- Tail-Flick, % effect at dose (mice [3]): 4% @ 10
- Hot-Plate, % effect at dose (mice [4]): 18% @ 10
- Hypothermia, % effect at dose (mice [5]): 0% @ 10
- Spontaneous Activity, % effect at dose (mice [6]; @ 10 mg/kg): 0% @ 10
- AD50 Tail-Flick (mice [7]): 0.006 mg/kg
- Antagonism Hot-Plate, % at dose (mice [8]; @ 10000 μg/kg): 24% @

Compound: CS(=O)(=O)c1ccc(-c2cc(C3CC4CCC3N4)cnc2F)cc1 (centres unmarked) [RTI-7527-154, 2-(5-(4-Methanesulphonyl-phenyl)-6-fluoro-pyridin-3-yl)-7-aza-bicyclo[2.2.1]heptane hydrochloride]
- Ki (α4β2 nAChR): 0.17 nM and 0.08 nM
- Tail-Flick, % effect at dose (mice [3]; [9]): 6% @ 10 and 5% @ 10
- Hypothermia, % effect at dose (mice [5]; [9]): 1% @ 10 and 1.2% @ 10
- Spontaneous Activity, % effect at dose (mice [6]; @ 5 mg/kg): 0% @ 5;
- Antagonism Hot-Plate, % at dose (mice [8]; @ 5000 μg/kg): 40% @
- AD50 Hot-Plate (mice [8]): 2.6 mg/kg
- Blockade of development of nicotine-induced CPP (Male ICR adult mice; mouse, in vivo): totally blocked
- Preference or aversion induced by compound itself in CPP (Male ICR adult mice; mouse, in vivo): did not induce significant preference or aversion
- Blockade of nicotine's hypertensive effects (Male Sprague-Dawley rats [1]; rats): did not block
- Cardiovascular effects (heart rate and mean arterial pressure) (Male Sprague-Dawley rats [1]; rats, s.c., compound alone): no cardiovascular effects
- Effect on rate-decreasing effects of nicotine (Male Sprague-Dawley rats [2]): did not, however, alter the potency of nicotine
- Effect on rates of responding (Male Sprague-Dawley rats [2]; compound alone): did not suppress ongoing rates of responding
- Nicotine-like discriminative stimulus effects (Male Sprague-Dawley rats [2]): no efficacy

Compound: CNC1(C)C2CCC(C2)C1(C)C (centres unmarked) [Mecamylamine, mecamylamine]
- Effect on rate-decreasing effects of nicotine (Male Sprague-Dawley rats [2]): parallel rightward shift
- Shift of discriminative stimulus dose-effect curve of small dose of nicotine (Male Sprague-Dawley rats [2]): rightward and downward shift

Compound: c1cnc2cc3c(cc2n1)[C@@H]1CNC[C@H]3C1 [varenicline, reference compound]
- Ki (α7 nAChR): 32.5 nM
- Tail-Flick, % effect at dose (mice [3]): 11% @ 10
- Hot-Plate, % effect at dose (mice [4]): 10% @ 10
- ED50 (mice [5]; Mus musculus): 2.8 mg/kg
- ED50 (mice [6]; Mus musculus): 2.1 mg/kg
- AD50 Tail-Flick (mice [7]): 0.0002 mg/kg
- AD50 Hot-Plate (mice [8]): 0.47 mg/kg
- Preference or aversion induced by compound itself in CPP (Male ICR adult mice; compound alone at the doses used): without a significant effect on its own
- Blockade of nicotine CPP (Male ICR adult mice; mouse, s.c. 10 min prior to nicotine 0.5 mg/kg, several doses): dose-dependently blocked nicotine CPP
- Effect on blood pressure (Male Sprague-Dawley rats [1]; rats, s.c., compound alone): substantial increases in blood pressure
- Nicotine-like discriminative stimulus effects (Male Sprague-Dawley rats [2]): nearly full nicotine-like discriminative stimulus effects

Compound: Clc1ccc(C2CC3CCC2N3)cn1 (single isomer, unassigned; (-)) [(−)-epibatidine, epibatidine]
- Effect on blood pressure (Male Sprague-Dawley rats [1]; rats, s.c., compound alone): substantial increases in blood pressure
- Nicotine-like discriminative stimulus effects (Male Sprague-Dawley rats [2]): extremely potent full nicotine-like agonist

Compound: CN1CCCC1c1cccnc1 (centres unmarked) [nicotine]
- Effect on blood pressure (Male Sprague-Dawley rats [1]; rat, in vivo, sc): substantial increases in blood pressure

Compound: Fc1ncc(C2CC3CCC2N3)cc1-c1ccc(C(F)(F)F)cc1 (centres unmarked) [RTI-7527-153, 2-(5-(4-Trifluoromethane-phenyl)-6-fluoro-pyridin-3-yl)-7-aza-bicyclo[2.2.1]heptane hydrochloride]
- Ki (α4β2 nAChR): 0.44 ± 0.05 nM
- Tail-Flick, % effect at dose (mice [3]): 4% @ 10
- Hot-Plate, % effect at dose (mice [4]): 6% @ 10
- Hypothermia, % effect at dose (mice [5]): 0% @ 10
- Spontaneous Activity, % effect at dose (mice [6]; @ 10 mg/kg): 5% @ 10
- AD50 Tail-Flick (mice [7]): 0.038 mg/kg
- AD50 Hot-Plate (mice [8]): 6 mg/kg

Compound: α-conotoxin AUIB
- Blockade of development of nicotine reward in the CPP test (Male ICR adult mice; mouse, in vivo): blocked the development of nicotine reward
